# Test system: A549 cells
# Assay: Matrigel invasion assay (modified Boyden chamber), A549 cells
# Format: cell-based
# Conditions: 100 to 800 ng/ml
# Procedure: The in vitro invasiveness of H1299 or A549 cells in the presence of various concentrations of NRC compounds (as determined by MTT assay) was assessed using a modified Boyden chamber assay. Cells were treated with these compounds for 48 h. 1×10^6 cells were suspended in 600 μl of serum-free medium supplemented with 0.2% BSA and placed in the upper compartment of the transwell chambers (Corning Costar Fischer Scientific Cat #07-200-158, Pittsburgh Pa.) coated with Matrigel (0.7 mg/ml). The lower compartment of the chamber was filled with 200 μl of serum-medium and the cells were allowed to migrate for 24 h. After incubation, the cells were fixed and stained with Hema-3 and quantified as previously described (Mohanam, et al. 1993). The migrated cells were quantified as percent invasion.
# Matrigel invasion was performed as described in materials and methods. […] Using H1299 cells similar retardation patterns of invasion was observed.
compound,measurement,value
C#Cc1cccc(Nc2ncnc3cc(OCCOC)c(OCCOC)cc23)c1 [Erlotinib],invasiveness,decreased invasiveness in a dose dependent manner

# From patent US8080558B2, “4-(tetrazol-5-yl)-quinazoline derivatives as anti-cancer agent” (Natco Pharma Limited, priority 2007, dated 2011)
